Laboratory results as given in ChEMBL document CHEMBL5058645, “Data for DCP probe JNJ-6204” (2022).

Experiments:
[1] = molecular target: Tyrosine-protein kinase Yes (Homo sapiens) (UniProt P07947); test: Yes(h) Kinase panel; conditions: Compound concentration 1.0 uM, tested as the 2H-labelled form
[2] = molecular target: Alpha-2A adrenergic receptor (Homo sapiens) (UniProt P08913); conditions: Compound concentration 10.0 uM, tested as the 2H-labelled form
[3] = molecular target: Phosphatidylinositol 4,5-bisphosphate 3-kinase catalytic subunit gamma isoform (Homo sapiens) (UniProt P48736); test: PI3 Kinase (p120g)(h) Kinase panel; conditions: Compound concentration 1.0 uM, tested as the 2H-labelled form
[4] = molecular target: SNF-related serine/threonine-protein kinase (Homo sapiens) (UniProt Q9NRH2); test: SNRK(h) Kinase panel; conditions: Compound concentration 1.0 uM, tested as the 2H-labelled form
[5] = molecular target: Serine/threonine-protein kinase 26 (Homo sapiens) (UniProt Q9P289); test: MST4(h) Kinase panel; conditions: Compound concentration 1.0 uM, tested as the 2H-labelled form
[6] = molecular target: 5-hydroxytryptamine receptor 1E (Homo sapiens) (UniProt P28566); conditions: Compound concentration 10.0 uM, tested as the 2H-labelled form
[7] = molecular target: Phosphatidylinositol 4,5-bisphosphate 3-kinase catalytic subunit alpha isoform (Homo sapiens) (UniProt P42336); test: PI3 Kinase (p110a/p85a)(h) Kinase panel; conditions: Compound concentration 1.0 uM, tested as the 2H-labelled form
[8] = molecular target: Serine/threonine-protein kinase DCLK2 (Homo sapiens) (UniProt Q8N568); test: DCAMKL2(h) Kinase panel; conditions: Compound concentration 1.0 uM, tested as the 2H-labelled form
[9] = molecular target: MAP/microtubule affinity-regulating kinase 4 (Homo sapiens) (UniProt Q96L34); test: MARK4(h) Kinase panel; conditions: Compound concentration 1.0 uM, tested as the 2H-labelled form
[10] = molecular target: Serine/threonine-protein kinase MARK2 (Homo sapiens) (UniProt Q7KZI7); test: PAR-1Balpha(h) Kinase panel; conditions: Compound concentration 1.0 uM, tested as the 2H-labelled form
[11] = molecular target: Cyclin-dependent kinase 17 (Homo sapiens) (UniProt Q00537); test: CDK17/cyclinY(h) Kinase panel; conditions: Compound concentration 1.0 uM, tested as the 2H-labelled form
[12] = molecular target: Cyclin-dependent kinase 6 (Homo sapiens) (UniProt Q00534); test: CDK6/cyclinD3(h) Kinase panel; conditions: Compound concentration 1.0 uM, tested as the 2H-labelled form
[13] = molecular target: 5'-AMP-activated protein kinase catalytic subunit alpha-2 (Homo sapiens, UniProt P54646); test: AMPKalpha2(h) Kinase panel; conditions: Compound concentration 1.0 uM, tested as the 2H-labelled form
[14] = molecular target: Interleukin-1 receptor-associated kinase 1 (Homo sapiens) (UniProt P51617); test: IRAK1(h) Kinase panel; conditions: Compound concentration 1.0 uM, tested as the 2H-labelled form
[15] = molecular target: Calcium/calmodulin-dependent protein kinase type IV (Homo sapiens) (UniProt Q16566); test: CaMKIV(h) Kinase panel; conditions: Compound concentration 1.0 uM, tested as the 2H-labelled form
[16] = molecular target: [Pyruvate dehydrogenase (acetyl-transferring)] kinase isozyme 2, mitochondrial (Homo sapiens) (UniProt Q15119); test: PDHK2(h) Kinase panel; conditions: Compound concentration 1.0 uM, tested as the 2H-labelled form
[17] = molecular target: Tyrosine-protein kinase Mer (Homo sapiens) (UniProt Q12866); test: Mer(h) Kinase panel; conditions: Compound concentration 1.0 uM, tested as the 2H-labelled form
[18] = molecular target: Ribosomal protein S6 kinase alpha-6 (Homo sapiens) (UniProt Q9UK32); test: Rsk4(h) Kinase panel; conditions: Compound concentration 1.0 uM, tested as the 2H-labelled form
[19] = molecular target: Ephrin type-B receptor 3 (Homo sapiens) (UniProt P54753); test: EphB3(h) Kinase panel; conditions: Compound concentration 1.0 uM, tested as the 2H-labelled form
[20] = molecular target: Serine/threonine-protein kinase tousled-like 2 (Homo sapiens) (UniProt Q86UE8); test: TLK2(h) Kinase panel; conditions: Compound concentration 1.0 uM, tested as the 2H-labelled form
[21] = molecular target: Casein kinase I isoform gamma-2 (Homo sapiens) (UniProt P78368); test: CK1gamma2(h) Kinase panel; conditions: Compound concentration 1.0 uM, tested as the 2H-labelled form
[22] = molecular target: Serine/threonine-protein kinase OSR1 (Homo sapiens) (UniProt O95747); test: OSR1(h) Kinase panel; conditions: Compound concentration 1.0 uM, tested as the 2H-labelled form
[23] = molecular target: Bone morphogenetic protein receptor type-2 (Homo sapiens) (UniProt Q13873); test: BMPR2(h) Kinase panel; conditions: Compound concentration 1.0 uM, tested as the 2H-labelled form
[24] = molecular target: Myosin light chain kinase 2, skeletal/cardiac muscle (Homo sapiens) (UniProt Q9H1R3); test: MYLK2(h) Kinase panel; conditions: Compound concentration 1.0 uM, tested as the 2H-labelled form
[25] = molecular target: 5-hydroxytryptamine receptor 7 (Homo sapiens) (UniProt P34969); conditions: Compound concentration 10.0 uM, tested as the 2H-labelled form
[26] = molecular target: Epidermal growth factor receptor (Homo sapiens) (UniProt P00533); test: EGFR(h) Kinase panel; conditions: Compound concentration 1.0 uM, tested as the 2H-labelled form
[27] = molecular target: Serine/threonine-protein kinase LATS2 (Homo sapiens) (UniProt Q9NRM7); test: LATS2(h) Kinase panel; conditions: Compound concentration 1.0 uM, tested as the 2H-labelled form
[28] = molecular target: Homeodomain-interacting protein kinase 1 (Homo sapiens) (UniProt Q86Z02); test: HIPK1(h) Kinase panel; conditions: Compound concentration 1.0 uM, tested as the 2H-labelled form
Rattus norvegicus = species on record: Rattus norvegicus; conditions: Compound concentration 10.0 uM, tested as the 2H-labelled form
[29] = molecular target: Mitogen-activated protein kinase kinase kinase 11 (Homo sapiens) (UniProt Q16584); test: MLK3(h) Kinase panel; conditions: Compound concentration 1.0 uM, tested as the 2H-labelled form
[30] = molecular target: Tribbles homolog 2 (Homo sapiens) (UniProt Q92519); test: TRB2(h) Kinase panel; conditions: Compound concentration 1.0 uM, tested as the 2H-labelled form
[31] = molecular target: Serine/threonine-protein kinase BRSK1 (Homo sapiens) (UniProt Q8TDC3); test: BrSK1(h) Kinase panel; conditions: Compound concentration 1.0 uM, tested as the 2H-labelled form
[32] = molecular target: [Pyruvate dehydrogenase (acetyl-transferring)] kinase isozyme 4, mitochondrial (Homo sapiens) (UniProt Q16654); test: PDHK4(h) Kinase panel; conditions: Compound concentration 1.0 uM, tested as the 2H-labelled form
[33] = molecular target: Cyclin-dependent kinase-like 4 (Homo sapiens) (UniProt Q5MAI5); test: CDKL4(h) Kinase panel; conditions: Compound concentration 1.0 uM, tested as the 2H-labelled form
[34] = molecular target: LIM domain kinase 1 (Homo sapiens) (UniProt P53667); test: LIMK1(h) Kinase panel; conditions: Compound concentration 1.0 uM, tested as the 2H-labelled form
[35] = molecular target: Serine/threonine-protein kinase VRK2 (Homo sapiens) (UniProt Q86Y07); test: VRK2(h) Kinase panel; conditions: Compound concentration 1.0 uM, tested as the 2H-labelled form
[36] = molecular target: Tyrosine-protein kinase ABL1 (Homo sapiens) (UniProt P00519); test: Abl(h) Kinase panel; conditions: Compound concentration 1.0 uM, tested as the 2H-labelled form
[37] = molecular target: Cyclin-dependent kinase 2 (Homo sapiens) (UniProt P24941); test: CDK2/cyclinE(h) Kinase panel; conditions: Compound concentration 1.0 uM, tested as the 2H-labelled form
[38] = molecular target: Tyrosine-protein kinase receptor UFO (Homo sapiens) (UniProt P30530); test: Axl(h) Kinase panel; conditions: Compound concentration 1.0 uM, tested as the 2H-labelled form
[39] = molecular target: Vascular endothelial growth factor receptor 1 (Homo sapiens) (UniProt P17948); test: Flt1(h) Kinase panel; conditions: Compound concentration 1.0 uM, tested as the 2H-labelled form
[40] = molecular target: Angiopoietin-1 receptor (Homo sapiens) (UniProt Q02763); test: Tie2 (h) Kinase panel; conditions: Compound concentration 1.0 uM, tested as the 2H-labelled form
[41] = molecular target: Mitogen-activated protein kinase 9 (Homo sapiens) (UniProt P45984); test: JNK2alpha2(h) Kinase panel; conditions: Compound concentration 1.0 uM, tested as the 2H-labelled form
[42] = molecular target: Calcium/calmodulin-dependent protein kinase type 1D (Homo sapiens) (UniProt Q8IU85); test: CaMKIdelta(h) Kinase panel; conditions: Compound concentration 1.0 uM, tested as the 2H-labelled form
[43] = molecular target: Testis-specific serine/threonine-protein kinase 2 (Homo sapiens) (UniProt Q96PF2); test: TSSK2(h) Kinase panel; conditions: Compound concentration 1.0 uM, tested as the 2H-labelled form
[44] = molecular target: Testis-specific serine/threonine-protein kinase 4 (Homo sapiens) (UniProt Q6SA08); test: TSSK4(h) Kinase panel; conditions: Compound concentration 1.0 uM, tested as the 2H-labelled form
[45] = molecular target: Serine/threonine-protein kinase A-Raf (Homo sapiens) (UniProt P10398); test: A-Raf(h) Kinase panel; conditions: Compound concentration 1.0 uM, tested as the 2H-labelled form
[46] = molecular target: eIF-2-alpha kinase GCN2 (Homo sapiens) (UniProt Q9P2K8); test: GCN2(h) Kinase panel; conditions: Compound concentration 1.0 uM, tested as the 2H-labelled form
[47] = molecular target: Cyclin-dependent kinase 3 (Homo sapiens) (UniProt Q00526); test: CDK3/cyclinE(h) Kinase panel; conditions: Compound concentration 1.0 uM, tested as the 2H-labelled form
[48] = molecular target: Serine/threonine-protein kinase TAO2 (Homo sapiens) (UniProt Q9UL54); test: TAO2(h) Kinase panel; conditions: Compound concentration 1.0 uM, tested as the 2H-labelled form
[49] = molecular target: Sigma non-opioid intracellular receptor 1 (Homo sapiens) (UniProt Q99720); conditions: Compound concentration 10.0 uM, tested as the 2H-labelled form
[50] = molecular target: Serine/threonine-protein kinase 3 (Homo sapiens) (UniProt Q13188); test: MST2(h) Kinase panel; conditions: Compound concentration 1.0 uM, tested as the 2H-labelled form

Tyrosine-protein kinase receptor UFO (Homo sapiens), sequence (P30530 whole entry): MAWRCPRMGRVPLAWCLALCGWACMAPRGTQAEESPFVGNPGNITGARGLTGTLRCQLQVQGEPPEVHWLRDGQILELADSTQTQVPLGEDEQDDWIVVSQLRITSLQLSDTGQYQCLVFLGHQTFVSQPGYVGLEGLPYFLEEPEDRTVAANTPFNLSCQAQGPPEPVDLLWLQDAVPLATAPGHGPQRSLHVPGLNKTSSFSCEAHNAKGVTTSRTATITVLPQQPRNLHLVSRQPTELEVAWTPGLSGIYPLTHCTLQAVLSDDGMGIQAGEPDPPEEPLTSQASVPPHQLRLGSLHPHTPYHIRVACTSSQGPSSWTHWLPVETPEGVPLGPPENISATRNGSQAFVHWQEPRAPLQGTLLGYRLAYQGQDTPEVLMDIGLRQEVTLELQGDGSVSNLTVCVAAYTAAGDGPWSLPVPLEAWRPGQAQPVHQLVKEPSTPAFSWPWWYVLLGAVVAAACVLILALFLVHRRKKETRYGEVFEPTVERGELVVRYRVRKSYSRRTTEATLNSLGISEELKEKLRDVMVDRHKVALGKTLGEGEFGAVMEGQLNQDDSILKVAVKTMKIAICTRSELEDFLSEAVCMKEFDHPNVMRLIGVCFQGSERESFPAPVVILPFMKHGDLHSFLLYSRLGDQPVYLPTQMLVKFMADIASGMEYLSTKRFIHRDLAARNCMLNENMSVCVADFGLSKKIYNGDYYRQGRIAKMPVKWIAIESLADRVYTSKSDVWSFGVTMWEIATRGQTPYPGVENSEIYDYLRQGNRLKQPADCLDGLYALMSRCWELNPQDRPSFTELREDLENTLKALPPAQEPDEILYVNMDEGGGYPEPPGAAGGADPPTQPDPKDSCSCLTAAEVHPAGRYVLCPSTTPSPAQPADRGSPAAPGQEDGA
Phosphatidylinositol 4,5-bisphosphate 3-kinase catalytic subunit gamma isoform (Homo sapiens), sequence (P48736 whole entry, looked up, canonical isoform): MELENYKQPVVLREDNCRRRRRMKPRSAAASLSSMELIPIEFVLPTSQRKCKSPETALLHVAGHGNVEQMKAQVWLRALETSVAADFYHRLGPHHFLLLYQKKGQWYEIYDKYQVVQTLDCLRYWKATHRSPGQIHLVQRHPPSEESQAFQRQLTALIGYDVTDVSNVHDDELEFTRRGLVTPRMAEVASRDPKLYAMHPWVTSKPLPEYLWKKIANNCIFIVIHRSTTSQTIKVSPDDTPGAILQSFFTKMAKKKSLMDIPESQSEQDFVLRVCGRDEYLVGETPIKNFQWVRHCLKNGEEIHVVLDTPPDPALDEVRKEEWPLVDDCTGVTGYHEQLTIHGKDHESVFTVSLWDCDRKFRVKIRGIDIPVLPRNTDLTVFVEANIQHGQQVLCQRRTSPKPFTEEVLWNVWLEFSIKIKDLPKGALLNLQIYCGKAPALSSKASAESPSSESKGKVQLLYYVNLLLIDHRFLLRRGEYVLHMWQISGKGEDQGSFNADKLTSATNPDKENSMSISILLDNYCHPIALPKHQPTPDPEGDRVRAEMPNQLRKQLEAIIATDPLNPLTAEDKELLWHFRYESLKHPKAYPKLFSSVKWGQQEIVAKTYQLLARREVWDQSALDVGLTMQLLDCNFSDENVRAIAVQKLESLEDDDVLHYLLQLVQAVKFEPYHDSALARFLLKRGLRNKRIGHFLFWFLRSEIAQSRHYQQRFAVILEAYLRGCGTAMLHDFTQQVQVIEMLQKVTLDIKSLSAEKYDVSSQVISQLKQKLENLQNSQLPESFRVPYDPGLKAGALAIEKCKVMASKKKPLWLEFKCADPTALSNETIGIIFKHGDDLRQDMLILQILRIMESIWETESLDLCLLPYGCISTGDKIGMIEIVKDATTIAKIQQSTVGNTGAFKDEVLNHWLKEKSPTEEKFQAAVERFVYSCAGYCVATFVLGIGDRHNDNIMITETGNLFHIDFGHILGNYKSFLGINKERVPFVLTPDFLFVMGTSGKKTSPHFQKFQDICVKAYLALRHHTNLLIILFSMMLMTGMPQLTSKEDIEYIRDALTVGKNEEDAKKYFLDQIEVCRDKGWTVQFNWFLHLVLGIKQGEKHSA
Tribbles homolog 2 (Homo sapiens), sequence (Q92519 whole entry): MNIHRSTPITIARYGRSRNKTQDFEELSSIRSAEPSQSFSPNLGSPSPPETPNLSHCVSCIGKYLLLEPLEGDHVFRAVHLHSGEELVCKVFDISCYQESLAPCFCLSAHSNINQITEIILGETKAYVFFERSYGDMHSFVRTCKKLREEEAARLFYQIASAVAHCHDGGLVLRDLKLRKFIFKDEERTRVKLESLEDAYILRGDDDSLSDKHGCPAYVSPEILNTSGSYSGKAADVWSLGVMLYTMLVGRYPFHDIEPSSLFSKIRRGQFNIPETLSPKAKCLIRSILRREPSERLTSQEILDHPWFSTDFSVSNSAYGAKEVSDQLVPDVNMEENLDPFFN
Ephrin type-B receptor 3 (Homo sapiens), sequence (P54753 whole entry): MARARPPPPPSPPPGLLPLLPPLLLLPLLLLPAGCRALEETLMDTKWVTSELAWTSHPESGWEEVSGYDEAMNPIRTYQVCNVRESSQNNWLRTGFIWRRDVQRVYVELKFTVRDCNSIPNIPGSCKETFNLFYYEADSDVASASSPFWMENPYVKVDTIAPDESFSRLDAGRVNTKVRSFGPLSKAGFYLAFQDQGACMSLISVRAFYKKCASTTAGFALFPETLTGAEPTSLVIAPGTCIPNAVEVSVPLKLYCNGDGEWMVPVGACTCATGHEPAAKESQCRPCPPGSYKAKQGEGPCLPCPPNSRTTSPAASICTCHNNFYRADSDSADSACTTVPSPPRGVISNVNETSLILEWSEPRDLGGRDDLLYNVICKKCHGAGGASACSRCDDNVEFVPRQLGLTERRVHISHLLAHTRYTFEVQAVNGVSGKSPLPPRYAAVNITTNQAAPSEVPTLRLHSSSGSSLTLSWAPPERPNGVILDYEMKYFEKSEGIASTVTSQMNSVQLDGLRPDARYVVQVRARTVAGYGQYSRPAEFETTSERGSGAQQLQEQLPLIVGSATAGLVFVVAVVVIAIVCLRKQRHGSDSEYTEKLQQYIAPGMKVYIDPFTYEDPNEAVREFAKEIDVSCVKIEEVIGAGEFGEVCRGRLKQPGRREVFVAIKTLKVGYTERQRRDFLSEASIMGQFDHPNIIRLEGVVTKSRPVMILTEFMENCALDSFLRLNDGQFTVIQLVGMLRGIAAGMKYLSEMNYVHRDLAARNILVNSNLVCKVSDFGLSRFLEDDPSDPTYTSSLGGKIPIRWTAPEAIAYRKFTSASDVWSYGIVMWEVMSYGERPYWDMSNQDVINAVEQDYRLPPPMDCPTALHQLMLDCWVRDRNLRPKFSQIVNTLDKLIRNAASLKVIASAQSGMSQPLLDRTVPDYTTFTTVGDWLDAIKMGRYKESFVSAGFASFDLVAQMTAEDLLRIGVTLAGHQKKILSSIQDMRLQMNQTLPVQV
Cyclin-dependent kinase-like 4 (Homo sapiens), sequence (Q5MAI5 whole entry, the tested form may be a part): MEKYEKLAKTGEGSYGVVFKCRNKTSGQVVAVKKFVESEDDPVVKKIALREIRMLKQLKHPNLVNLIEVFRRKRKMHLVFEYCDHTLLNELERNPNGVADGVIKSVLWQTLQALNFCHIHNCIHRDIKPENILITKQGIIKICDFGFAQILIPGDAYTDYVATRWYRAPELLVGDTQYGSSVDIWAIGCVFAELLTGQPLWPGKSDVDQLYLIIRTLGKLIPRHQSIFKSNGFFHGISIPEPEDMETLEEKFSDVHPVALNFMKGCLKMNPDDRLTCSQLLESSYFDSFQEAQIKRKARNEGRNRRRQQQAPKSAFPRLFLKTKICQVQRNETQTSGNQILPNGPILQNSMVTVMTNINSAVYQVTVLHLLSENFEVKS
Tyrosine-protein kinase Yes (Homo sapiens), sequence (P07947 2-543 limits assumed): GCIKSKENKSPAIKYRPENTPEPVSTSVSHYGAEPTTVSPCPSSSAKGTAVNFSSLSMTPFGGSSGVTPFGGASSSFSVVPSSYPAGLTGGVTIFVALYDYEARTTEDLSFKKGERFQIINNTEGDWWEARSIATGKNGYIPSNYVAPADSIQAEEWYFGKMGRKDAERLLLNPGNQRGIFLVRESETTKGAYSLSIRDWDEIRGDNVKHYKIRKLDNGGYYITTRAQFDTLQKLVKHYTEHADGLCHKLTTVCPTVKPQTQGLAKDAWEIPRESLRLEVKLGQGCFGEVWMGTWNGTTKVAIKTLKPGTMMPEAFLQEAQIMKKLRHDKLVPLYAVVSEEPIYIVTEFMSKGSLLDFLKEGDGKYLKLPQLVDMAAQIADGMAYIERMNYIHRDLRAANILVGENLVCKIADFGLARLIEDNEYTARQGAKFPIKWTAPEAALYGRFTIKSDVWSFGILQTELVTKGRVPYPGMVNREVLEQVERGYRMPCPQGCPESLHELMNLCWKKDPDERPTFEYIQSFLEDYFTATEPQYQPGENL
[Pyruvate dehydrogenase (acetyl-transferring)] kinase isozyme 4, mitochondrial (Homo sapiens), sequence (Q16654 whole entry, looked up): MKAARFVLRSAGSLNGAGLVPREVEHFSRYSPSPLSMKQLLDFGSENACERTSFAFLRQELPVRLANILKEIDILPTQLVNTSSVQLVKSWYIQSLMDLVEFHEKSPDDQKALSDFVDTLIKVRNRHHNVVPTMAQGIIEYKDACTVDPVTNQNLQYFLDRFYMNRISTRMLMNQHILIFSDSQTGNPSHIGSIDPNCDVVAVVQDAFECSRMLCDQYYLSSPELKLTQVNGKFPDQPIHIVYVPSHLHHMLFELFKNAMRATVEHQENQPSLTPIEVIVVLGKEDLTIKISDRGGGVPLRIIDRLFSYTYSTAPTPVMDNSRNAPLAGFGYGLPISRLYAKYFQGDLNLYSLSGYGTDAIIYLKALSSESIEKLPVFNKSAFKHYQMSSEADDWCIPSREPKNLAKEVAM
Testis-specific serine/threonine-protein kinase 2 (Homo sapiens), sequence (Q96PF2 whole entry): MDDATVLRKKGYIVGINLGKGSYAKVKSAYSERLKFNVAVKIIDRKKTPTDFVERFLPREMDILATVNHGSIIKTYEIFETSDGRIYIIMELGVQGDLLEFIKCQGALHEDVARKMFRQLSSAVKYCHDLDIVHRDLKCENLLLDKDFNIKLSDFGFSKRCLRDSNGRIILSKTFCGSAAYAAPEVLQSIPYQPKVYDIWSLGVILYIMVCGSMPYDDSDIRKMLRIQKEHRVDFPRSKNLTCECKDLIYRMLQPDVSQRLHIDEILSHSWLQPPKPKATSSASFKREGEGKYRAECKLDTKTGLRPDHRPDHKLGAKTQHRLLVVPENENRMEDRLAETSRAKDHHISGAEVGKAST

inhibition [1]: -6%
inhibition [2]: 15.4%
inhibition [3]: 2%
inhibition [4]: 4%
inhibition [5]: 6%
inhibition [6]: 2.51%
inhibition [7]: 2%
inhibition [8]: 37%
inhibition [9]: 4%
inhibition [10]: 15%
inhibition [11]: 6%
inhibition [12]: -7%
inhibition [13]: 31%
inhibition [14]: 15%
inhibition [15]: -5%
inhibition [16]: 26%
inhibition [17]: 6%
inhibition [18]: 23%
inhibition [19]: 14%
inhibition [20]: 12%
inhibition [21]: -1%
inhibition [22]: 9%
inhibition [23]: -7%
inhibition [24]: 23%
inhibition [25]: -3.57%
inhibition [26]: -8%
inhibition [27]: 12%
inhibition [28]: 3%
inhibition (Rattus norvegicus): 50.9%
inhibition [29]: 5%
inhibition [30]: -2%
inhibition [31]: 13%
inhibition [32]: -7%
inhibition [33]: 9%
inhibition [34]: -9%
inhibition [35]: 8%
inhibition [36]: -1%
inhibition [37]: 7%
inhibition [38]: 16%
inhibition [39]: 7%
inhibition [40]: 1%
inhibition [41]: -2%
inhibition [42]: -1%
inhibition [43]: 11%
inhibition [44]: 5%
inhibition [45]: 12%
inhibition [46]: -6%
inhibition [47]: -8%
inhibition [48]: 18%
inhibition [49]: 15.1%
inhibition [50]: 9%
Structure (SMILES): CC1(C)Cn2nc(-c3ccc(F)cn3)c(-c3ccnc4[nH]ncc34)c2CO1
